Data on 7 compounds can be found in patent US7951954B2, “Bezothiazol derivatives as Beta2 adrenoreceptor agonists” (AstraZeneca AB, priority 2006, dated 2011).

Structures are written as SMILES. Counter-ions that a name gives are not always drawn. Like-named read-outs stand apart in the source and are kept apart here.

For test [1], the target named is T1, recombinant human adrenergic beta 1 receptors (Homo sapiens, UniProt P08588).
T1 construct: purchased Euroscreen
Kind of test: Adrenergic β1 selectivity assay, [125I]-Iodocyanopindolol binding to membranes. The settings on record: inhibition of [125I]-Iodocyanopindolol binding, read-out: β1 pEC50 (converted). How it is done:
Membranes containing recombinant human adrenergic beta 1 receptors were obtained from Euroscreen. These were diluted in Assay Buffer (50 mM HEPES, 1 mM EDTA, 120 mM NaCl, 0.1% gelatin, pH 7.4) to provide a final concentration of membranes that gave a clear window between maximum and minimum specific binding.
(§1) Assays were performed in U-bottomed 96-well polypropylene plates. 10 μL [^125I]-Iodocyanopindolol (0.036 nM final concentration) and 10 μL of test compound (10× final concentration) were added to each test well. For each assay plate 8 replicates were obtained for [^125I]-Iodocyanopindolol binding in the presence of 10 μL vehicle (10% (v/v) DMSO in Assay Buffer; defining maximum binding) or 10 μL Propranolol (10 μM final concentration; defining non-specific binding (NSB)). Membranes were then added to achieve a final volume of 100 μL. The plates were incubated for 2 hours at room temperature and then filtered onto PEI coated GF/B filter plates, pre-soaked for 1 hour in Assay Buffer, using a 96-well plate Tomtec cell harvester. Five washes with 250 μL wash buffer (50 mM HEPES, 1 mM EDTA, 120 mM NaCl, pH 7.4) were performed at 4° C. to remove unbound radioactivity. The plates were dried then sealed from underneath using Packard plate sealers and MicroScint-O (50 μL) was added to each well. The plates were sealed (TopSeal A) and filter-bound radioactivity was measured with a scintillation counter (TopCount, Packard BioScience) using a 3-minute counting protocol.
(§2) Total specific binding (B0) was determined by subtracting the mean NSB from the mean maximum binding. NSB values were also subtracted from values from all other wells.

For test [2], the target named is T2, recombinant human α1D receptor (Homo sapiens, UniProt P25100).
T2 construct: expressed in transfected cells; host or cells: HEK293
T2 sequence (P25100 1-572): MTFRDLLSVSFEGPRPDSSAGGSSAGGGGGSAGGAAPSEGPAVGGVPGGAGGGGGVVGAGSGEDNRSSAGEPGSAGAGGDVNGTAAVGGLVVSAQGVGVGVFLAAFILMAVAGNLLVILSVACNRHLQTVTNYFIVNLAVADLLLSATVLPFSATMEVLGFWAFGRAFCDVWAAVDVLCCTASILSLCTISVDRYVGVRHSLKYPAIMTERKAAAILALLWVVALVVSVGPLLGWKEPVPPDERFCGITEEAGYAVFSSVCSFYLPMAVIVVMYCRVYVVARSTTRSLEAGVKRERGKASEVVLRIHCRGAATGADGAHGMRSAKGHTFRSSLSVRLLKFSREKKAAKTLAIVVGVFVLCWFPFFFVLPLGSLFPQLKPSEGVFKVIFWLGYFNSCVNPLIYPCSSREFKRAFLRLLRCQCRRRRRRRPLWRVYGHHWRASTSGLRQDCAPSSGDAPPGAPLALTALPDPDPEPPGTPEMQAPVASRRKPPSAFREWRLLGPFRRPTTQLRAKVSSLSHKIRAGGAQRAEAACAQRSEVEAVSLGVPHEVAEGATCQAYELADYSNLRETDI
Kind of test: Adrenergic α1D selectivity assay, [3H]-prazosin binding to HEK293 membranes. The settings on record: inhibition of [3H]-prazosin binding, HEK293 membranes with recombinant human α1D; read-out: α1D pEC50 (converted). On the procedure:
These were diluted in Assay Buffer (50 mM HEPES, 1 mM EDTA, 0.1% gelatin, pH 7.4) to provide a final concentration of membranes that gave a clear window between maximum and minimum specific binding.
as §1, with “10 μL [^125I]-Iodocyanopindolol (0.036 nM final concentration) and 10 μL of test compound (10× final concentration) were added to each test well.” left out, “[^3H]-prazosin” for “[^125I]-Iodocyanopindolol”, “BMY7378” for “Propranolol”, “EDTA,” for “EDTA, 120 mM NaCl,”
as §2

For another test, the target named is T3, Adrenergic β2 (Homo sapiens, UniProt P07550).
T3 construct: endogenous in cells; host or cells: H292 cells
T3 sequence (P07550 whole entry): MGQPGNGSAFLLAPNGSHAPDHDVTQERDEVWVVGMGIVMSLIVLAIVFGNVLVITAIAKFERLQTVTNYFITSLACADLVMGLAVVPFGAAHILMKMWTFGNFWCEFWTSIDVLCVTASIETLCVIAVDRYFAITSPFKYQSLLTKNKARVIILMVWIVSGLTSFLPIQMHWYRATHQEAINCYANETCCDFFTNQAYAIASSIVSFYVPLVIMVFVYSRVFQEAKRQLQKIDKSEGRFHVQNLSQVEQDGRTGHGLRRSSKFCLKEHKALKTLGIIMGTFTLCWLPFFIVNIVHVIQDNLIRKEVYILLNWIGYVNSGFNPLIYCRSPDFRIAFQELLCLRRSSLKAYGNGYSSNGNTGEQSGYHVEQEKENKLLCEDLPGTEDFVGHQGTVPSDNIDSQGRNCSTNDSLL
Kind of test: Adrenergic β2 mediated cAMP production in H292 cells (AlphaScreen cAMP detection). Type of test: cell-based. The settings on record: for EC50: cAMP production in H292 cells, 300 μM rolipram, 10 minutes with compound, read-out: β2 pEC50 (converted). How it is done:
Adrenergic β2 Mediated cAMP Production
H292 cells were grown in RPMI (Roswell Park Memorial Institute) medium containing, 10% (v/v) FBS (foetal bovine serum) and 2 mM L-glutamine. Cells were grown in 225 cm2 flasks containing 25 mL media in a humidified incubator at 37° C., 5% CO2. Cells were harvested from the flask and passaged at a 1 in 10 dilution once per week.
The media from flasks containing H292 cells was removed, rinsed with 10 mL PBS phosphate buffered saline) and replaced with 10 mL Accutase™ cell detachment solution. Flasks were incubated for 15 minutes in a humidified incubator at 37° C., 5% CO2. The cell suspension was counted and the cells re-suspended in RPMI media (containing 10% (v/v) FBS and 2 mM L-glutamine) at 0.05×10^6 cells per mL. 5000 cells in 100 μL were added to each well of a tissue-culture-treated 96-well plate and the cells incubated overnight in a humidified incubator at 37° C., 5% CO2. The culture media was removed, washed twice with 100 μL assay buffer and replaced with 50 μL assay buffer. Cells were rested at room temperature for 20 minutes after which time 25 μL of rolipram (1.2 mM made up in assay buffer containing 2.4% (v/v) dimethylsulphoxide) was added. Cells were incubated with rolipram for 10 minutes after which time test compounds (made up as ×4 concentrated stocks in assay buffer containing 4% (v/v) dimethylsulphoxide) were added and the cells were incubated for 10 minutes at room temperature. Final rolipram concentration in the assay was 300 μM and final vehicle concentration was 1.6% (v/v) dimethylsulphoxide. The reaction was stopped by removing supernatants, washing once with 100 μL assay buffer and replacing with 50 μL lysis buffer. The cell monolayer was frozen at −80° C. for 30 minutes (or overnight).
The concentration of cAMP (cyclic adenosine monophosphate) in the cell lysate was determined using the AlphaScreen™ methodology. The frozen cell plate was thawed for 20 minutes on a plate shaker then 10 μL of the cell lysate was transferred to a 96-well white plate. 40 μL of mixed AlphaScreen™ detection beads (containing equal volumes of donor beads (pre-incubated with biotinylated cAMP in the dark for 30 minutes) and acceptor beads), was added to each well and the plate incubated at room temperature for 10 hours in the dark. The AlphaScreen™ signal was measured using an EnVision spectrophotometer (Perkin-Elmer Inc.) with the recommended manufacturer's settings. cAMP concentrations were determined by reference to a calibration curve determined in the same experiment using standard cAMP concentrations (made up in lysis buffer in a 96-well tissue-culture-treated plate and frozen/thawed alongside the test samples) and detected using the same protocol. Concentration response curves for agonists were constructed to determine both the pEC50 and Intrinsic Activity.
For orientation: Cyclic AMP is a second messenger, typically raised through Gs and lowered through Gi signalling.

Where [3] appears, read: fraction relative to the maximum activity determined for formoterol in each experiment, H292 cells, cAMP.

T1 sequence (P08588 whole entry): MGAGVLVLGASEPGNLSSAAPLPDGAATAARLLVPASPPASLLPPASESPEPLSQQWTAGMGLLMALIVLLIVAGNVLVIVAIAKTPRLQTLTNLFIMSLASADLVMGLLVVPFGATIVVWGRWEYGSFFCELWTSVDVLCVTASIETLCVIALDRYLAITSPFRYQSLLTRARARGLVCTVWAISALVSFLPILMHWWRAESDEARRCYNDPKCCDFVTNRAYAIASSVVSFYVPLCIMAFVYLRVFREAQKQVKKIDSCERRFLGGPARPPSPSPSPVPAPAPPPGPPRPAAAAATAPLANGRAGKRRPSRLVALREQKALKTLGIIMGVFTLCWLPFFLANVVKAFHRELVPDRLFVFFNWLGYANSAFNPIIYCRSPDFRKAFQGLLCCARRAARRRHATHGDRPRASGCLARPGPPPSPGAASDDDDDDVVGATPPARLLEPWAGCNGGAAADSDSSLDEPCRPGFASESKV

For the compound `COc1ccccc1CNCCc1cccc(CCNC[C@H](O)c2ccc(O)c3[nH]c(=O)sc23)c1` [Example 45, 4-Hydroxy-7-[1R-hydroxy-2-(2-{3-[2-(2-methoxy-benzylamino)-ethyl]-phenyl}-ethylamino)-ethyl]-3H-benzothiazol-2-one bis-hydrochloride salt], the figures for the EC50 in test [1] and in test [2] were 63.1 nM and 25.1 nM, respectively. On Adrenergic β2, the “Intrinsic Activity” value stood at 1.0.
Turning to `O=c1[nH]c2c(O)ccc([C@@H](O)CNCCc3cccc(CN4CCCC4)c3)c2s1` [Example 51, 4-Hydroxy-7-{1R-hydroxy-2-[2-(3-pyrrolidin-1-ylmethyl-phenyl)-ethylamino]-ethyl}-3H-benzothiazol-2-one bis-hydrochloride salt], the EC50 was 1260 nM in test [1], 1000 nM in test [2] and 1 nM on Adrenergic β2. Moreover, the “Intrinsic Activity” value at Adrenergic β2 (setting [3]) is recorded as 1.1.
For `CC(C)NCc1ccc(CCNC[C@H](O)c2ccc(O)c3[nH]c(=O)sc23)cc1` [Example 53, 4-Hydroxy-7-{1R-hydroxy-2-[2-(4-isopropylaminomethyl)phenyl]ethylamino}-ethyl)-3H-benzothiazol-2-one bis-trifluoroacetate salt], in that order: 251 nM, 398 nM, 0.631 nM and 0.9.
Take `O=c1[nH]c2c(O)ccc([C@@H](O)CNCCc3cccc(CNCc4ccccn4)c3)c2s1` [Example 61, 4-Hydroxy-7-{1R-hydroxy-2-[2-(3-{[(pyridin-2-ylmethyl)-amino]-methyl}-phenyl)-ethylamino]-ethyl}-3H-benzothiazol-2-one bis-hydrochloride salt]: the EC50 in test [1] is 79.4 nM; in test [2], 316 nM. Besides, the “Intrinsic Activity” value on Adrenergic β2 was determined as 0.9.
On to `CC(C)OCCCNCc1cccc(CCNC[C@H](O)c2ccc(O)c3[nH]c(=O)sc23)c1` [Example 64, 4-Hydroxy-7-[1R-hydroxy-2-(2-{3-[(3-isopropoxy-propylamino)-methyl]-phenyl}-ethylamino)-ethyl]-3H-benzothiazol-2-one bis-hydrochloride salt], for which the results for the EC50 (in test [1]; in test [2]; at Adrenergic β2) were 501 nM, 398 nM and 0.794 nM, respectively. Moreover, the “Intrinsic Activity” value at Adrenergic β2 (setting [3]) was found to be 0.8.
Take `O=c1[nH]c2c(O)ccc([C@@H](O)CNCCc3cccc(CN4CCCCCC4)c3)c2s1` [Example 71, 7-{2-[2-(3-Azepan-1-ylmethyl-phenyl)-ethylamino]-1R-hydroxy-ethyl}-4-hydroxy-3H-benzothiazol-2-one bis-hydrochloride salt-]: the results for the EC50 (in test [1]; in test [2]; on Adrenergic β2) were 398 nM, 31.6 nM and 0.794 nM, respectively. Further, the “Intrinsic Activity” value at Adrenergic β2 (setting [3]) came to 0.9.
For `O=c1[nH]c2c(O)ccc([C@@H](O)CNCCc3cccc(CN4CCOCC4)c3)c2s1` [Example 72, 4-Hydroxy-7-{1R-hydroxy-2-[2-(3-morpholin-4-ylmethyl-phenyl)-ethylamino]-ethyl}-3H-benzothiazol-2-one bis-hydrochloride salt], in that order: 100 nM, 398 nM, 1 nM and 0.9.
